Measurements from PubChem BioAssay (NCI).
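Dose response: 5 concentrations. Exposure: 48 h. Format: 96-well plates. Endpoint: linear interpolation; highest concentration if not reached. TGI denotes the concentration required for complete inhibition of growth.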

Key:
Assay in all cases: NCI anticancer screen, dose series, 48 h
[1] = system: MOLT-4 leukemia
[2] = system: OVCAR-3 ovarian
[3] = system: NCI-H23 lung
[4] = system: U251 CNS
[5] = system: HOP-18 NSCLC
[6] = system: ACHN renal
[7] = system: NCI-H522 lung
[8] = system: DLD-1 colon
[9] = system: NCI-H460 lung
[10] = system: RXF 393 renal
[11] = system: SF-295 CNS
[12] = system: DMS 273 small cell lung
[13] = system: SNB-75 CNS
[14] = system: M14 melanoma
[15] = system: SK-MEL-5 melanoma
[16] = system: OVCAR-4 ovarian
[17] = system: RPMI-8226 leukemia
[18] = system: IGROV1 ovarian
[19] = system: A549 NSCLC
[20] = system: HCC-2998 colon
[21] = system: OVCAR-5 ovarian
[22] = system: MALME-3M melanoma
[23] = system: HOP-92 NSCLC
[24] = system: NCI-H226 lung
[25] = system: M19-MEL melanoma
[26] = system: SNB-78 CNS
[27] = system: CCRF-CEM leukemia
[28] = system: SN12C renal
[29] = system: UO-31 renal
[30] = system: SF-539 CNS
[31] = system: 786-0 renal
[32] = system: HCT-116 colon
[33] = system: HOP-62 NSCLC
[34] = system: LXFL 529 NSCLC
[35] = system: COLO 205 colon
[36] = system: HT29 colon
[37] = system: K-562 leukemia
[38] = system: UACC-62 melanoma
[39] = system: SW-620 colon
[40] = system: SK-MEL-2 melanoma
[41] = system: DMS 114 small cell lung
[42] = system: EKVX NSCLC
[43] = system: HCT-15 colon
[44] = system: OVCAR-8 ovarian
[45] = system: UACC-257 melanoma
[46] = system: SF-268 CNS
[47] = system: SK-MEL-28 melanoma
[48] = system: SK-OV-3 ovarian
[49] = system: HL-60(TB) leukemia
[50] = system: SNB-19 CNS
[51] = system: KM20L2 colon
[52] = system: KM12 colon
[53] = system: SR leukemia

Measured: TGI

Cc1ccc(NC(=O)CC(=O)N2N=C(N(CCC#N)c3cccc(C)c3)CC2c2ccccc2)cc1 (stereo not drawn)
> 100 µM: [1] | [2] | [3] | [4] | [5] | [6] | [7] | [8] | [9] | [10] | [11] | [12] | [13] | [14] | [15] | [16] | [17] | [18] | [19] | [20] | [21] | [22] | [23] | [24] | [25] | [26] | [27] | [28] | [29] | [30] | [31] | [32] | [33] | [34] | [35] | [36] | [37] | [38] | [39] | [40] | [41] | [42] | [43] | [44] | [45] | [46] | [47] | [48] | [49] | [50] | [51] | [52] | [53]
